The values that follow come from the NIST ThermoML archive (doi:10.1021/je300517q).

The conditions of data set [1]: Crystal; DTA.
Data set [2] can be described thus: Molar enthalpy of transition or fusion. As to conditions: Crystal; DSC.

Numbers after ± are expanded uncertainties.

Take `Nc1cccnn1` [3-pyridazinamine]: the Normal melting temperature in data set [1] was determined as 169.47 ± 0.39 °C. The “Molar enthalpy of transition or fusion” value in data set [2] amounted to 2.63 ± 0.17 kJ/mol.
